We go through two compounds from patent publication US20100099793A1, “Gluing and Sealing Compounds Having Antimicrobial Properties” (Thor GmbH, priority 2006, published 2010).

The structures appear in SMILES notation.

The test system of data set [1] is mixture of fungal spores (Aspergillus niger, Alternaria alternata, Penicillium funiculosum, Paecilomyces variotii, Gliocladium virens, Chaetomium globosum). Briefly: Microbiological test along the lines of EN ISO 846 part B: fungal growth on sealant test specimens on complete agar. In kind it is cell-based. Also on record: key to Fungal growth after 28 d Method B Complete agar a / Fungal growth after 28 d Method B Complete agar b: 0: No growth evident when viewed with a microscope.; 1: Slight growth, no growth evident to the naked eye, readily apparent microscopically.; Slight growth, readily apparent macroscopically, growth over not more than 25% of the sample surface.; 3: Moderate growth, growth over up to 50% of the sample surface.; 4: Severe growth, growth over more than 50% of the sample surface, but not over the entire area.; 5: Severe growth over the entire sample surface. The settings on record: silicone; for Fungal growth after 28 d Method B Complete agar a: duplicate a; for Fungal growth after 28 d Method B Complete agar b: duplicate b. The procedure:
The microbiological tests were carried out each in duplicate determinations along the lines of the standard EN ISO 846 B. For this purpose the sealants themselves were applied to inert support material (e.g., glass plates) approximately 2 mm thick, and, after curing, were cut into sections measuring 3×3 cm.
[…] In this test, the test specimens were placed on carbon-containing nutrient media (complete agar) for monitoring of the fungicidal action, and were then sprayed with a mixture of fungal spores; 0.1 ml of suspension per test specimen.
The spore suspension contained 10^6 CFU/ml and comprised the following fungi:
The samples thus inoculated were incubated at 25° C. for 28 days. This was followed by a visual evaluation of the sample surface. Where no growth was evident with the naked eye, the test took place with the assistance of a microscope. The ISO 846 tests were evaluated using the following scheme: • 0 No growth evident when viewed with a microscope. • 1 Slight growth, no growth evident to the naked eye, readily apparent microscopically. • 2 Slight growth, readily apparent macroscopically, growth over not more than 25% of the sample surface. • 3 Moderate growth, growth over up to 50% of the sample surface. • 4 Severe growth, growth over more than 50% of the sample surface, but not over the entire area. • 5 Severe growth over the entire sample surface.

A short description of data set [2]: Analysis for active in the sealant without and after water storage (retention / leaching). Format: physicochemical. The following applies: silicone; for Active [ppm] Oit: oxime basis, 1000 ppm added. The procedure: These sections, described below as test specimens, were subjected, both without water storage and after 2 days of water storage in fully demineralized water, with a change of water at 24 hours, to the ISO 846 test, part B. In this test, the test specimens were placed on carbon-containing nutrient media (complete agar) for monitoring of the fungicidal action, and were then sprayed with a mixture of fungal spores; 0.1 ml of suspension per test specimen.
These sealants were analyzed for the amounts of OIT present, both without water storage and after 2 days of water storage, and the leaching (%) was calculated.

Setting [3] is: acetoxy basis, 500 ppm, water storage 0 d.
Where [4] appears, read: acetoxy basis, 500 ppm, water storage 3 months (once a week 24 hour storage in fully demineralized water).
[5] abbreviates: acetoxy basis, 1000 ppm, water storage 0 d.
The mark [6] stands for this setting: acetoxy basis, 1000 ppm, water storage 3 months (once a week 24 hour storage in fully demineralized water).
[7] abbreviates: oxime basis, 500 ppm, water storage 0 d.
Setting [8] is: oxime basis, 500 ppm, water storage 2 d.
[9] abbreviates: oxime basis, 1000 ppm, water storage 0 d.
The mark [10] stands for this setting: oxime basis, 1000 ppm, water storage 2 d.

For `CCCCCCCCn1sccc1=O` [OIT, 2-n-octyl-4-isothiazolin-3-one], the “Fungal growth after 28 d Method B Complete agar a” value in data set [1] (setting [3]) is on record as 1; in data set [1] (setting [4]), 5; in data set [1] (setting [5]) it was 0; in data set [1] (setting [6]), 4 (Severe growth, growth over more than 50% of the sample surface, but not over the entire area.); in data set [1] (setting [7]) it was 0; in data set [1] (setting [8]), 3 (Moderate growth, growth over up to 50% of the sample surface.). Moreover, the “Fungal growth after 28 d Method B Complete agar a” value in data set [1] (setting [9]) is on record as 0; in data set [1] (setting [10]), 3 (Moderate growth, growth over up to 50% of the sample surface.). For the same compound, the “Fungal growth after 28 d Method B Complete agar b” value in data set [1] (setting [3]) is recorded as 2 (Slight growth, readily apparent macroscopically, growth over not more than 25% of the sample surface.); in data set [1] (setting [4]), 5; in data set [1] (setting [5]), 0; in data set [1] (setting [6]), 5; in data set [1] (setting [7]), 1; in data set [1] (setting [8]), 3 (Moderate growth, growth over up to 50% of the sample surface.). For the same compound, the “Fungal growth after 28 d Method B Complete agar b” value in data set [1] (setting [9]) was 0; in data set [1] (setting [10]), 2 (Slight growth, readily apparent macroscopically, growth over not more than 25% of the sample surface.). In addition, the “fungal growth (in words)” value in data set [1] (acetoxy basis, after the 3-month water storage cycles) was “heavily overgrown”; in data set [1] (oxime basis, after water storage (2d)) it was “moderately severe growth”. For the same compound, in data set [1] (acetoxy basis, without water storage (0d)), the “fungal growth / action (in words)” value is on record as “good action”. For the same compound, the “Amount of active (ppm) With water storage” value in data set [2] (acetoxy system, 400 ppm of OIT introduced, after 2 days of water storage) was found to be 265 ppm. In data set [2] (acetoxy system, 400 ppm of OIT introduced, calculated from amounts without and after 2 days of water storage), the “% leaching” value is 37%. The “Amount of active (ppm) Without water storage” value in data set [2] (acetoxy system, 400 ppm of OIT introduced, without water storage) is given as 420 ppm. In addition, the “Active [ppm] Oit” value is 740 ppm in data set [2] (0 d (before water storage)) and 230 ppm in data set [2] (2 d (after water storage)).

As to `COC(=O)Nc1nc2ccccc2[nH]1` [carbendazim], the “Fungal growth after 28 d Method B Complete agar a” value is listed as 3 (Moderate growth, growth over up to 50% of the sample surface.) in data set [1] (setting [3]); 5 in data set [1] (setting [4]); 2 (Slight growth, readily apparent macroscopically, growth over not more than 25% of the sample surface.) in data set [1] (setting [5]); 4 (Severe growth, growth over more than 50% of the sample surface, but not over the entire area.) in data set [1] (setting [6]). Also, the “Fungal growth after 28 d Method B Complete agar b” value was 4 (Severe growth, growth over more than 50% of the sample surface, but not over the entire area.) in data set [1] (setting [3]); 5 in data set [1] (setting [4]); 2 (Slight growth, readily apparent macroscopically, growth over not more than 25% of the sample surface.) in data set [1] (setting [5]); 5 in data set [1] (setting [6]). The “fungal colonization (in words)” value in data set [1] (acetoxy basis, 1000 ppm of active, without water storage (0d)) is recorded as “slight colonization”. For the same compound, the “fungal growth (in words)” value in data set [1] (acetoxy basis, both 500 and 1000 ppm, after the 3-month water storage cycle) is reported as “severe fungal growth”.
